This is an account of results in patent publication US10473646B2, “In vitro culturing or expanding human or animal tissue” (UNIVERSITAETSSPITAL BASEL, priority 2014, dated 2019).

What all share (assay type): cell-based, human
The subject of assay [1] is tumor infiltrating lymphocytes (TILs) in Luminal A Breast Cancer (MAM18). The experiment in a line: PHA stimulation of tumor infiltrating lymphocytes in in vitro cultured tumor chunks (immunohistochemistry CD45, CD3, CD68). Conditions: 1 ng/mL added at day 0, 7 days. As to the method: One important component of the tumor microenvironment is represented by the tumor infiltrating lymphocytes (TILs) that for some tumor types plays an important role by determining the patient prognosis and it is gaining a major attention in the so called cancer immune-therapy. By using PHA (Phytohemagglutinin), TILs are stimulated in their metabolic and proliferative activity, in order to understand if it was possible their stimulation inside the in vitro cultured tumor chunks. The PHA (1 ng/mL) is added at the beginning of the bioreactor culture (day 0).
These raise the possibility to study immunological question or test cancer immunotherapies on in vitro cultured tumor specimens.

Assay [2] relates to Luminal A breast cancer tissue. Put plainly: In-vitro drug test on Luminal A breast cancer tissue chunks cultured in 3D perfusion bioreactor. Conditions: 100 nM, added at day 0 of bioreactor culture. The method, then:
(§1) The system is tested mainly for colorectal cancer and Luminal A breast cancer. Thereby a tissue specimen is manually cut in small chunks at a size of 1 mm to 2 mm per side. The pieces are placed in between two collagen scaffolds having a diameter of 8 mm to create an assembly or “sandwich” that it is then placed in a perfusion chamber of the 3D perfusion bioreactor. For each bioreactor, 8-10 mL of culture media are used. The chunks are cultured for 10 to 20 days without medium change.
(§2) Thereby, essentially the same or similar methods and procedures are applied as described hereinbefore in connection with the second example directed to colorectal cancer tissue.
(§3) Luminal A breast cancer is defined as estrogen receptor (ER) positive, progesterone receptor (PR) positive, human epidermal growth factor receptor 2 (HER2) negative and with few proliferating tumor cells (low % of Ki67 positive cells). This type of tumor requires estrogen as growth factor for its survival and expansion. The downsized tissue or tissue chunks are cultured in a medium containing 10% of human autologous serum (AS), therefore receiving all the growth factors comprising the estrogen. […]

In assay [3] the test system is Luminal A breast cancer tissue. The experiment in a line: Estrogen supplementation effect on in vitro culture of Luminal A breast cancer tissue chunks. Conditions: 200 ng/mL, medium with 10% autologous serum. The method, then:
as §1, §2, §3
The estrogen supplementation effect on in vitro culture is evaluated. […]

Turning to Phytohemagglutinin [PHA], the “presence of TILs after PHA treatment (CD45, CD3, CD68 staining, FIG. 14)” value in assay [1] was “the presence of TILs is still detectable”.
For `C[C@]12CC[C@@H]3c4ccc(O)cc4C[C@@H](CCCCCCCCC[S+]([O-])CCCC(F)(F)C(F)(F)F)[C@H]3[C@@H]1CC[C@@H]2O` (stereo partly drawn) [Fulvestrant], the “effect of anti-estrogen receptor drug treatment on in vitro cultured tumor tissue (FIG. 13)” value in assay [2] was “there is an effect”.
Turning to 2-Estradiol, in assay [3], the “survival and proliferation of the tissue with extra estrogen supplementation (E+) versus without (E-)” value is recorded as “do not show any particular difference”.
